Reference: PubChem BioAssay (NCI)
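48-hour exposure; five concentrations; linearly interpolated endpoints. At the GI50, growth is halved. TGI marks complete inhibition of growth.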 Where a SMILES comes first, the peptide text is derived from it. The star is where a group is joined. Fmoc = O=C(OCC1c2ccccc2-c2ccccc21)*; Boc = CC(C)(C)OC(=O)*

Legend:
Assay in all cases: NCI tumour cell line growth inhibition, 48 h
MDA-MB-435 = tested on: MDA-MB-435
NCI-H460 lung = tested on: NCI-H460 lung
OVCAR-3 ovarian = tested on: OVCAR-3 ovarian
TK-10 renal = tested on: TK-10 renal
HT29 colon = tested on: HT29 colon
MCF7 breast = tested on: MCF7 breast
OVCAR-8 ovarian = tested on: OVCAR-8 ovarian
SK-MEL-2 melanoma = tested on: SK-MEL-2 melanoma
M14 melanoma = tested on: M14 melanoma
XF 498 CNS = tested on: XF 498 CNS
M19-MEL melanoma = tested on: M19-MEL melanoma

| SMILES | TGI (MDA-MB-435) [µM] | TGI (NCI-H460 lung) [µM] | TGI (OVCAR-3 ovarian) [µM] | TGI (TK-10 renal) [µM] | TGI (HT29 colon) [µM] | TGI (MCF7 breast) [µM] | TGI (OVCAR-8 ovarian) [µM] | TGI (SK-MEL-2 melanoma) [µM] | TGI (M14 melanoma) [µM] | TGI (XF 498 CNS) [µM] | TGI (M19-MEL melanoma) [µM] | GI50 (MDA-MB-435) [µM] | GI50 (NCI-H460 lung) [µM] | GI50 (OVCAR-3 ovarian) [µM] | GI50 (TK-10 renal) [µM] | GI50 (HT29 colon) [µM] | GI50 (MCF7 breast) [µM] | GI50 (OVCAR-8 ovarian) [µM] | GI50 (SK-MEL-2 melanoma) [µM] | GI50 (M14 melanoma) [µM] |
| --- | --- | --- | --- | --- | --- | --- | --- | --- | --- | --- | --- | --- | --- | --- | --- | --- | --- | --- | --- | --- |
| COc1cc2c3c4c1OCc1c5c(cc(c1-4)CC3[N+](C)(C)CC2)OCO5 (stereo unspecified) | > 100 | > 100 | > 100 | > 100 | > 100 | > 100 | > 100 | > 100 | > 100 |  |  |  |  |  |  |  |  |  |  |  |
| CCCCn1c2c(n(CCCC)c1=[Se])-c1c(n(CCCC)c(=[Se])n1CCCC)S[Se][Se]S2 | > 100 | 29 | 25 | 43.3 | > 64.6 | > 69 | 30.5 | 45.9 | > 59.9 |  |  |  |  |  |  |  |  |  |  |  |
| CC(C)(C)OC(=O)NCCCCC(NC(=O)C(Cc1c[nH]c2ccccc12)NC(=O)OCC1c2ccccc2-c2ccccc21)C(=O)O (stereo unspecified) (Fmoc-Trp-Lys(Boc)-OH; configuration not given here) | > 100 | > 100 | 40.4 | > 100 | > 100 | > 100 | > 100 | 54.9 | > 100 |  |  |  |  |  |  |  |  |  |  |  |
| O=c1[nH]c(Br)nc2c(N3CCCCC3)c[nH]c12 |  | > 100 | > 100 | > 100 | > 100 |  | > 100 | > 100 | > 100 | > 100 | > 100 |  |  |  |  |  |  |  |  |  |
| C#CC1(O)CC(c2ccccc2)N(C)C(c2ccccc2)C1 (stereo unspecified) |  | > 100 | > 100 | > 100 | > 100 |  | > 100 | > 100 | > 100 |  | > 100 |  |  |  |  |  |  |  |  |  |
| Cc1ccc(C)c(C(=N)c2ccccc2Cc2ccccc2)c1 | 47.2 | 33.2 | 27.2 | > 100 | 33.7 | 32.4 | > 100 | 32 | > 100 |  |  |  |  |  |  |  |  |  |  |  |
| CC1(C)N=C(N)N=C(N)N1CCCCc1ccccc1 | > 100 | > 100 | > 36.8 | > 100 | > 100 | > 100 | > 100 | > 100 | > 100 |  |  |  |  |  |  |  |  |  |  |  |
| CCOC(=O)c1c(CN2CCOCC2)n(Cc2ccccc2)c2c1cc(O)c1nc(C)c(C)nc12 | > 100 | > 100 | > 100 | 97.7 | > 100 | 34.5 | 53.4 | 44.5 | > 100 |  |  |  |  |  |  |  |  |  |  |  |
| COc1ccccc1NC1=NCC(C)S1 (stereo unspecified) | > 100 | > 100 | > 100 | > 100 | > 100 | > 100 | > 100 | > 100 | > 100 |  |  |  |  |  |  |  |  |  |  |  |
| CC(=O)Nc1nc(C)c(-c2cc3c(c(S(C)(=O)=O)c2)C(=O)N([C@@H](C)C2CC2)C3)s1 | > 100 | > 100 | > 100 | 75.4 | > 100 | > 100 | > 100 | 67.7 | > 100 |  |  | 52.4 | 37.1 | 30.9 | 20.7 | 31 | 23.7 | 39.4 | 21.9 | 28 |
| COc1ccc(-c2c(C#N)cnc(N)c2-c2nc3cc(C)c(C)cc3[nH]2)cc1 | 5.39 | > 100 | 30.4 | 26.4 | > 100 | > 100 | 26.8 | 98 | > 100 |  |  | 1.95 | 18.1 | 14.8 | 5.94 | 4.79 | 6.34 | 5.2 | 10.8 | 6.61 |
| CCOC(=O)/C=C1\C[C@H](NC(=O)OCc2ccccc2)C(=O)N1CC(=O)OCC | > 100 | > 100 | > 100 | > 100 | > 100 | > 100 | > 100 | > 100 | > 100 |  |  |  |  |  |  |  |  |  |  |  |
| Cc1ccc(C(=O)C(C)N)cc1C (stereo unspecified) |  | > 100 | > 100 | > 100 | > 100 |  | > 100 | > 100 | > 100 | > 100 | > 100 |  |  |  |  |  |  |  |  |  |
| CC(C)C(=O)CP(=O)(O)O | > 100 | > 100 | > 100 | > 100 | > 100 | > 100 | > 100 | > 100 | > 100 |  |  |  |  |  |  |  |  |  |  |  |
| O=Cc1ccc2[nH]c(=O)oc2c1 | > 100 | > 100 | > 100 | > 100 | > 100 | > 100 | > 100 | > 100 | > 100 |  |  |  |  |  |  |  |  |  |  |  |
| CCc1ncc(C(C)(O)c2ccccc2)n1Cc1ccccc1 (stereo unspecified) | 48.1 | > 100 | > 100 | > 100 | > 100 | > 100 | > 100 | > 100 | 13 |  |  |  |  |  |  |  |  |  |  |  |
